US8124637B2, “Anthra [1, 2-d]imidazole-6,11-dione derivatives, preparation method and application thereof” (National Defense Medical Center, priority 2010, dated 2012)

Biological target: T1, telomerase (total cell lysates of lung cancer cell line H1299) (Homo sapiens, UniProt O14746)
T1 construct: As a source of telomerase, the total cell lysates derived from lung cancer cell line H1299 cells were used; endogenous in cells; host or cells: H1299 lung cancer cells (total cell lysate)
Assay: Telomere repeat amplification protocol (TRAP) assay
Format: biochemical
Settings: preliminary screening at 10 μM, gel
Procedure: Telomerase activity was detected by a modified version of the general TRAP protocol. Telomerase products were resolved by 10% polyacrylamide gel electrophoresis and visualized by staining with SYBER Green. As a source of telomerase, the total cell lysates derived from lung cancer cell line H1299 cells were used. Protein concentration of the lysates was assayed using Bio-Rad protein assay kit using BSA standards.
In the FIGS. 3A, 3B and FIG. 4, a positive control group (P) used water that had been sterilized three times in the assay; while a negative control group (N) used RNase A (CLONTECH) (5 μL, 0.1 mg/mL) in the assay.
In the positive control group (P), due to the absence of inhibitor, the telomerase could extend the telomere, such that some longer telomere fragments could be observed; while there was not observed in the negative control group (N). In the result of TRAP assay (FIG. 3A to 3B), compounds with a concentration of 10 μM was used as the preliminary screening. In the gel, standard compound A was 1,2-diaminoanthraquinone, D was doxorubicin, and M was mitoxantrone.

T1 sequence (O14746 whole entry): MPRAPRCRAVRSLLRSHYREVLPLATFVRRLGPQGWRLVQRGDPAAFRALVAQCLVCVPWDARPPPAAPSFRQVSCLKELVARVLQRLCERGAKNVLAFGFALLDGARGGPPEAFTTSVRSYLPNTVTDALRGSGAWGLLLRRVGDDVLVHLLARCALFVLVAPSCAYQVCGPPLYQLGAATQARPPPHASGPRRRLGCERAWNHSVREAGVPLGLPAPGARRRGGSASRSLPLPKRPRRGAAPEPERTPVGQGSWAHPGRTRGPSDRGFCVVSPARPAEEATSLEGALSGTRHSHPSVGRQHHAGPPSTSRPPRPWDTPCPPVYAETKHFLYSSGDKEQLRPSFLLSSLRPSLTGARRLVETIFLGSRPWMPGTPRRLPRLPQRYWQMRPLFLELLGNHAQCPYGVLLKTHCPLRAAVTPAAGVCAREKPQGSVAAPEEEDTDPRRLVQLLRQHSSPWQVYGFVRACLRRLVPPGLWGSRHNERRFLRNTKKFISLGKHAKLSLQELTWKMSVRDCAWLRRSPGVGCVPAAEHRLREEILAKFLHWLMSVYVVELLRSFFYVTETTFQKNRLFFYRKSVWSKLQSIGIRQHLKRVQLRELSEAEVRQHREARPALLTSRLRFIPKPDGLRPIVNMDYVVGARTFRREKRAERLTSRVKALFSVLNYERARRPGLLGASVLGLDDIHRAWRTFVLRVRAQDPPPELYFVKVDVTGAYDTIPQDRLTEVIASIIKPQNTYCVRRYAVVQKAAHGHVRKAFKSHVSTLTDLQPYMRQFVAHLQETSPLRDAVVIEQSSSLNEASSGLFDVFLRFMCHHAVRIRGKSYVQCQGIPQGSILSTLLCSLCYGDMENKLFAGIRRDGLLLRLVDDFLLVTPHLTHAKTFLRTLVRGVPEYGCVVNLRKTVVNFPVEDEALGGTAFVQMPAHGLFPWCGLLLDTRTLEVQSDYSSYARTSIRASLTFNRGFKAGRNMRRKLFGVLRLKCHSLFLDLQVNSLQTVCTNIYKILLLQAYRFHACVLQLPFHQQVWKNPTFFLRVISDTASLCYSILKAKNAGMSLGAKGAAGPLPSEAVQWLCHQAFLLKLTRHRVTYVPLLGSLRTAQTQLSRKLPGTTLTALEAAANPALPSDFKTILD
T1 sequence (O60832 whole entry partner): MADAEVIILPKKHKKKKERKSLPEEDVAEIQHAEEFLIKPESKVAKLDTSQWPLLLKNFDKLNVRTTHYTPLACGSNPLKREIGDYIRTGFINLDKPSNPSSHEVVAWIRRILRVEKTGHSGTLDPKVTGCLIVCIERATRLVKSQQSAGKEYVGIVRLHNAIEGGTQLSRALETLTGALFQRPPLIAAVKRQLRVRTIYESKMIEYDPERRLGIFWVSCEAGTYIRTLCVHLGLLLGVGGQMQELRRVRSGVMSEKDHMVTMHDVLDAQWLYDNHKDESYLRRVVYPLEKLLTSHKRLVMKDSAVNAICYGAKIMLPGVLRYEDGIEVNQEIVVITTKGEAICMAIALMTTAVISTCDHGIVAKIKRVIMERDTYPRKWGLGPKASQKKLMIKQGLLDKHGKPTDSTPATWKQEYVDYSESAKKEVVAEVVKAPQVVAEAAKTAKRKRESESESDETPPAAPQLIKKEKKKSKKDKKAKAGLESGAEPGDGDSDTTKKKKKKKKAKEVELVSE
T1 sequence (Q9NX24 whole entry partner): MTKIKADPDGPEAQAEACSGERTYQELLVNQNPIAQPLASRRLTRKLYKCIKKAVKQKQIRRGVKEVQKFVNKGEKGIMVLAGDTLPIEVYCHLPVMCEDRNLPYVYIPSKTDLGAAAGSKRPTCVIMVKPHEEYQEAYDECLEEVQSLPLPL
T1 sequence (Q9NPE3 whole entry partner): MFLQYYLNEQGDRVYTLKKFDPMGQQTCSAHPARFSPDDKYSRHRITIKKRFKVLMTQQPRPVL
T1 sequence (Q9NY12 whole entry partner): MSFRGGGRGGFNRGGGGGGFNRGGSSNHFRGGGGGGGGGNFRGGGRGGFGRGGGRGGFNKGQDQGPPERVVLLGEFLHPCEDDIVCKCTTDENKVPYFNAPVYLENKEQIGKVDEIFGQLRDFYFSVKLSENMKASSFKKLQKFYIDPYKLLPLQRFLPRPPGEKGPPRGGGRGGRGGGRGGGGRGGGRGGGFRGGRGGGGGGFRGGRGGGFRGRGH

SMILES: CN1CCN(Cc2nc3ccc4c(c3[nH]2)C(=O)c2ccccc2C4=O)CC1 [CL24, 2-((4-methylpiperazin-1-yl)methyl)-1H-anthra[1,2-d]imidazole-6,11-dione]
- inhibition effect/activity of telomerase (TRAP): more significant inhibition effect/activity of telomerase
